Here are results for 100 substances from US20240207421A1, “NERVE TARGETING PEPTIDES AND METHODS OF USE” (ALUME BIOSCIENCES, INC., priority 2020, published 2024).

Sequence of Human MPZ (human) (P25189 30-153 limits assumed): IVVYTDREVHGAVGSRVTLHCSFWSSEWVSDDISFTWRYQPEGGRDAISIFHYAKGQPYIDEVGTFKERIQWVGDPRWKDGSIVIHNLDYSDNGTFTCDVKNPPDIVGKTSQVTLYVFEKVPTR

The first assay has as its target Human MPZ (human) (UniProt P25189). Put plainly: phage display, NGS count.
Conditions: not given
Consider SPNTNSH (peptide), for which the Count is 40.

In turn, MIHTRQT (peptide) had a Count of 41.

For SGHGAFR (peptide), the Count turned out to be 42.

Take FALPAGL (peptide): the Count was 41.

Regarding SETESYM (peptide), the Count came out at 41.

FMSDVDH (peptide) returned a Count of 37.

On to KLPTLSV (peptide), for which the Count was determined as 44.

For the substance WMTNLDP (peptide), the Count turned out to be 43.

KTPILAS (peptide) showed a Count of 38.

Turning to KQPAMEN (peptide), the Count was determined as 37.

NASVPPK (peptide) yielded a Count of 42.

MYHDSVS (peptide) displayed a Count of 47.

In turn, VVPLKWI (peptide) showed a Count of 40.

In the case of YEGERGA (peptide), the Count is 39.

In turn, HPLMVPS (peptide) came in with a Count of 41.

Consider GLWRHTM (peptide), for which the Count turned out to be 40.

For THSTDLS (peptide), the Count was 37.

For QIAHLEY (peptide), the Count amounted to 50.

The substance LSPPRIM (peptide) came in with a Count of 43.

VHTPYRS (peptide) came in with a Count of 41.

The next assay deals with Human Myelin PLP. Put plainly: Phage display library screening (Example 2, Python script analysis), binding to Human Myelin PLP. As to conditions: combined unique sequence count, Python/R script analysis. On the procedure: Phage display library screens were used to identify peptides that bind to target proteins (including specific laminin trimers) that are expressed in human nerves, as described in Table 3. These screens were also carried out to identify peptides that could bind selectively to nerves versus muscle. Such peptides could therefore be useful for systemic in-vivo labeling of nerves during fluorescence assisted surgery. Specifically, m 13 phage libraries expressing 7 or 12 random amino acid peptides, or a cyclic peptide CX7C, on the N-terminus of the minor coat protein pIII (New England Biolabs; NEB) were processed through multiple rounds of selection for binding to target proteins expressed in nerves, or to excised human nerves, nerve extracts, or muscle, as described further below.
For screening against the specified target proteins in Table 1, including LN211, LN411, LN421, and LN521, the phage library was processed by up to 4 binding and wash cycles. For selection, phage libraries were incubated for up to 24 hours at 4° C. in 96 well plates that had been coated with one of the target proteins. Plates were then washed with PBS and phage were eluted using 0.2M glycine pH 2.0. Phage supernatants where then neutralized with Tris pH 9.0 prior to plating on TGI bacteria and LB agar plates. Colonies were counted to determine titer followed by DNA preparation of pools of phage and NextGen sequencing. After rounds of selection, phage were pooled and amplified for iterative selection. Phage that were bound at each round were sequenced. NextGen sequencing of pools after 2, 3 and 4 rounds of selection was used to isolate candidate sequences that were analyzed further to identify those that specifically bound each unique target protein.
Python Script Analysis: For all NEB sequence datasets, a python script was used to translate, trim, and filter the peptide sequences. The script translated the nucleotide sequences, translating amber codons as glutamine in peptide sequences, and then trimmed the end sequences that come from the vector. Secondly, the script combined the unique counts of trimmed peptides with identical sequences. […] Another python script was used to group peptides from different assays according to protein target (Myelin Protein Zero, Myelin Proteolipid Protein, Myelin Basic Protein, and Nidogen-2) and also combine the unique sequence counts for each peptide. An R script was written to merge the peptide sequences from different data files and determine peptides specific for each protein target but absent from different protein binding datasets. Peptide sequences were ranked by unique sequence count.
As for SVMWMTP (Myelin PLP-binding peptide), the Count was determined as 29.

Consider NIPSSIL (Myelin PLP-binding peptide), for which the Count was 33.

As for IIPPTSV (Myelin PLP-binding peptide), the Count amounted to 31.

On to SWDVLEL (Myelin PLP-binding peptide), for which the Count is recorded as 31.

For the substance GSAWKKH (Myelin PLP-binding peptide), the Count worked out at 44.

For WSPHGYK (Myelin PLP-binding peptide), the Count is reported as 27.

TGISSTP (Myelin PLP-binding peptide): the Count came out at 27.

As for LPLRLHA (Myelin PLP-binding peptide), the Count came to 31.

For the substance NDASTVS (Myelin PLP-binding peptide), the Count came out at 28.

As for HLHTRPT (Myelin PLP-binding peptide), the Count was found to be 27.

On to YSSRLTA (Myelin PLP-binding peptide), for which the Count is recorded as 29.

In the case of TQPRYPS (Myelin PLP-binding peptide), the Count came to 28.

As to EVLYPNN (Myelin PLP-binding peptide), the Count was determined as 27.

Turning to VRTSMNH (Myelin PLP-binding peptide), the Count was 28.

Consider YSDTYKH (Myelin PLP-binding peptide), for which the Count was determined as 30.

For the substance AQASSAR (Myelin PLP-binding peptide), the Count worked out at 27.

Consider WSRISVD (Myelin PLP-binding peptide), for which the Count is given as 26.

As to IHHLESS (Myelin PLP-binding peptide), the Count worked out at 32.

Take ARFVPLT (Myelin PLP-binding peptide): the Count is reported as 30.

For MKIMPMD (Myelin PLP-binding peptide), the Count is recorded as 26.

LPVKNLL (Myelin PLP-binding peptide): the Count amounted to 26.

Consider DGSRDLV (Myelin PLP-binding peptide), for which the Count is on record as 30.

TDVEMVP (Myelin PLP-binding peptide): the Count is listed as 40.

With YTWTPSR (Myelin PLP-binding peptide), the Count stood at 28.

As to EKSTTVA (Myelin PLP-binding peptide), the Count came to 30.

On to TKITPHR (Myelin PLP-binding peptide), for which the Count is on record as 29.

In the case of WSPHRSF (Myelin PLP-binding peptide), the Count is 31.

As for SGVATYT (Myelin PLP-binding peptide), the Count was found to be 31.

For MPHAPVQ (Myelin PLP-binding peptide), the Count is listed as 37.

As to TMPIKAM (Myelin PLP-binding peptide), the Count is given as 27.

In the case of GHLQSLF (Myelin PLP-binding peptide), the Count was found to be 26.

Take FSLDRDG (Myelin PLP-binding peptide): the Count worked out at 29.

For the substance IDRVRGL (Myelin PLP-binding peptide), the Count came out at 29.

Turning to SLNRGGA (Myelin PLP-binding peptide), the Count turned out to be 28.

In the case of IRPTHNG (Myelin PLP-binding peptide), the Count worked out at 27.

AVVAMNK (Myelin PLP-binding peptide): the Count was 28.

With KPSASIY (Myelin PLP-binding peptide), the Count was 26.

Consider NVFSATP (Myelin PLP-binding peptide), for which the Count was determined as 31.

Take GWSTAIR (Myelin PLP-binding peptide): the Count amounted to 29.

As for TFPERLR (Myelin PLP-binding peptide), the Count is listed as 31.

As for HKAPLGT (Myelin PLP-binding peptide), the Count turned out to be 29.

For the substance DRHEGHR (Myelin PLP-binding peptide), the Count was found to be 26.

Consider VSSQEQA (Myelin PLP-binding peptide), for which the Count was 34.

As to QLPRNNL (Myelin PLP-binding peptide), the Count is reported as 28.

For VSASWMP (Myelin PLP-binding peptide), the Count was 27.

In the case of TRASYPQ (Myelin PLP-binding peptide), the Count amounted to 32.

As for SVEKYSK (Myelin PLP-binding peptide), the Count worked out at 33.

For WHYTPSM (Myelin PLP-binding peptide), the Count was found to be 26.

Consider GPAAVII (Myelin PLP-binding peptide), for which the Count stood at 29.

Regarding SVVYQNS (Myelin PLP-binding peptide), the Count amounted to 26.

AHQSSVT (Myelin PLP-binding peptide): the Count is reported as 42.

For the substance SVLPDKL (Myelin PLP-binding peptide), the Count is on record as 28.

As to EPSSFTF (Myelin PLP-binding peptide), the Count is listed as 31.

For ALFQERK (Myelin PLP-binding peptide), the Count was 27.

Regarding VTGPGTP (Myelin PLP-binding peptide), the Count is 26.

In the case of SLPGYRH (Myelin PLP-binding peptide), the Count amounted to 28.

Turning to ASLTLAL (Myelin PLP-binding peptide), the Count was found to be 26.

With FSTPTNV (Myelin PLP-binding peptide), the Count turned out to be 29.

Take GLWGPSL (Myelin PLP-binding peptide): the Count was 26.

For GNVFQTS (Myelin PLP-binding peptide), the Count came to 31.

As to QPNMLKP (Myelin PLP-binding peptide), the Count was found to be 33.

Consider TTTIADM (Myelin PLP-binding peptide), for which the Count was determined as 26.

Turning to SGLHYAL (Myelin PLP-binding peptide), the Count was determined as 32.

Regarding SAQSRSF (Myelin PLP-binding peptide), the Count was 26.

On to YSQAISA (Myelin PLP-binding peptide), for which the Count was found to be 27.

GKSYSQI (Myelin PLP-binding peptide): the Count is on record as 31.

As for GIPSSKN (Myelin PLP-binding peptide), the Count turned out to be 28.

For QRRSVIL (Myelin PLP-binding peptide), the Count is on record as 31.

In the case of SALISTR (Myelin PLP-binding peptide), the Count is listed as 32.

Take LHQTYRP (Myelin PLP-binding peptide): the Count worked out at 27.

In the case of LPSHASI (Myelin PLP-binding peptide), the Count is 26.

As to VPGHISG (Myelin PLP-binding peptide), the Count is 27.

LNGISAL (Myelin PLP-binding peptide): the Count amounted to 32.

On to VGYRSAS (Myelin PLP-binding peptide), for which the Count came out at 28.

For FRIDKSM (Myelin PLP-binding peptide), the Count amounted to 26.

Take RLQPEPT (Myelin PLP-binding peptide): the Count is reported as 33.

With VFPERRV (Myelin PLP-binding peptide), the Count came to 28.

Regarding SLPSLLP (Myelin PLP-binding peptide), the Count is on record as 26.

For LMQKPSI (Myelin PLP-binding peptide), the Count turned out to be 29.

On to TLWAQKT (Myelin PLP-binding peptide), for which the Count was 28.
